Experimental findings from patent US4603217A, “Ester substituted alkyl-2-(2,6-dichloroanilino)phenyl acetates” (priority 1983, dated 1986) are described below.

Each structure is given as a SMILES string.

The nature of series [1]: potentiating effect on thiopental-induced sleep in mice. It is filed as in vivo, male ddY mice. As to conditions: mouse, in vivo, po. Here is the method:
(§1) Effect on central nervous system, which is another side effect of IM, was investigated according to the potentiating effect on thiopental-induced sleep in mice as follows: Male ddY mice weighing 20 to 24 g were subjected to fasting for 15 hrs. […] At 30 mins after the administration, thiopental sodium was injected intravenously to each of the mice in an amount of 35 mg/l kg body weight, and then, the sleeping time was observed. When the sleeping time of the mice to which the Test Compound was administered was longer than 2 times that of the control to which only Tween-80 was administered, the given Test Compound was judged to be effective on thiopental-induced sleep potentiating effect.

A further series has as its system thiopental-induced sleep. The description is as above. Format: in vivo, male ddY mice. The following applies: mouse, in vivo. The protocol:
as §1

Series [2] can be described thus: Rate of hydrolysis in rat plasma. It is filed as in vitro ADME. As to conditions: in 1 ml of plasma rat (37° C., incubation for 1 hr). The protocol: **in 1 ml of plasma rat (37° C., incubation for 1 hr)
The nature of series [3]: in vivo. The following applies: mouse, po.
A further series has as its system ultraviolet erythema. The experiment in a line: inhibition action for ultraviolet erythema. On the set-up: 2 hs after the irradiation, Average ± standard error / 3 hs after the irradiation, Average ± standard error / 5 hs after the irradiation, Average ± standard error: scale not given here; 2 hs after the irradiation, Rate for inhibition / 3 hs after the irradiation, Rate for inhibition / 5 hs after the irradiation, Rate for inhibition: unit not given here. It is filed as in vivo, male Hartley guinea pigs. The following applies: guinea pigs; for 2 hs after the irradiation, Average ± standard error / 2 hs after the irradiation, Rate for inhibition: 2 hs after irradiation; for 3 hs after the irradiation, Average ± standard error / 3 hs after the irradiation, Rate for inhibition: 3 hs after irradiation; for 5 hs after the irradiation, Average ± standard error / 5 hs after the irradiation, Rate for inhibition: 5 hs after irradiation. The protocol:
With respect to Compounds 1 to 3, 15 and 21 which are especially useful as an anti-inflammatory drug, IM and DF, inhibition action for ultraviolet erythema was investigated according to the method of Adames et al [cf. Nature, London, 181, 773 (1958)] using guinea pigs as follows: Male Hartley guinea pigs weighing 250 to 350 g were shaved at their sides the day before and two hrs before the ultraviolet irradiation. To the guinea pigs were administered orally Compounds 1 to 3, 15 and 21, IM and DF in amounts as described in Table 2, respectively. To the control group was administered orally only Tween-80. At 1 hr after the time of administration, the guinea pigs were irradiated at their shaved sides by ultraviolet beam for 40 seconds.
The reaction of the ultraviolet erythema was evaluated at 2 hrs, 3 hrs and 5 hrs after irradiation according to the method of Winder et al [cf. Arch. Int. Pharmacodyn., 116, 261 (1958)]. […] Compounds 1 and 2 show a duration of the pharmacological effect over 5 hrs, contrary to that IM has a duration of 2 hrs.

A further series relates to carrageenan edema. The series can be described thus: inhibition test of carrageenan edema employing a foot-pad edema method. It is filed as in vivo, male Wister rats. As to conditions: Rattus norvegicus; male Wister rats, foot-pad edema; read-out: ED50 for inhibition for carrageenan edema. The text has this:
Anti-inflammatory action was investigated according to the method of Winter et al [cf. Pro. Soc. Exp. Biol. Med., 111, 544 (1962)] by the inhibition test of carrageenan edema employing a foot-pad edema method using carrageenan as an irritating agent and male Wister rats weighing 130 to 170 g.
On the technique in general: Carrageenan injected into the paw causes an acute inflammation.

Series [4] in a line: in vivo. As to conditions: rat, po. Here is the method:
Gastrointestinal ulcer formation action, which is a principal side effect of an acid anti-inflammatory drug, was investigated according to the method of Okabe et al [cf. […] The compounds of the present invention, IM, DF and acemethacin were suspended in 5% Tween-80 solution and administered orally 1 ml/100 g body weight to the rats, respectively. At 6 hrs after the administration, the state of glandstomach was observed by means of a dissecting microscope whether the ulcer having a diameter more than 1 mm was generated or not.

A word on the ED50: it is the dose at which the effect has come halfway, by size or by number of responders. What is called LD50 is the dose expected to kill half of the subjects tested. On to `COc1ccc2c(c1)c(CC(=O)OCCOC(C)=O)c(C)n2C(=O)c1ccc(Cl)cc1` [Compound 3, 2-(Acetoxy)ethyl[1-(p-chlorobenzoyl)-5-methoxy-2-methyl-3-indolyl]acetate], for which the ED50 in series [1] worked out at 600 mg/kg. For the same molecule, the “potentiating effect on thiopental-induced sleep relative to IM” value in the series with thiopental-induced sleep was 1/5.7. Besides, the metabolised at 1 h in series [2] turned out to be 97.3%. The molecule further returned an LD50 in the series “in vivo [3]” of 65 mg/kg. For the same molecule, in the series on ultraviolet erythema (3 mg/kg orally), the “2 hs after the irradiation, Average ± standard error” value was found to be 0.5 ± 0.224; the “2 hs after the irradiation, Rate for inhibition” value came to 81.3; the “3 hs after the irradiation, Average ± standard error” value stood at 2.5 ± 0.224; the “3 hs after the irradiation, Rate for inhibition” value was 11.7. In the series with ultraviolet erythema (3 mg/kg orally), the “5 hs after the irradiation, Average ± standard error” value was determined as 2.83 ± 0.167 and the “5 hs after the irradiation, Rate for inhibition” value came to 0. Also, in the series with ultraviolet erythema (10 mg/kg orally), the “2 hs after the irradiation, Average ± standard error” value was determined as 0.67 ± 0.333; the “2 hs after the irradiation, Rate for inhibition” value turned out to be 74.9; the “3 hs after the irradiation, Average ± standard error” value came out at 2.3 ± 0.211; the “3 hs after the irradiation, Rate for inhibition” value is listed as 18.7. Moreover, in the series on ultraviolet erythema (10 mg/kg orally), the “5 hs after the irradiation, Average ± standard error” value stood at 2.50 ± 0.224 and the “5 hs after the irradiation, Rate for inhibition” value is on record as 11.7. Besides, the 50% effective dose (ED50) in the series on carrageenan edema came to 6 mg/kg. Besides, the TD50 at 6 h in “in vivo [4]” is 15 mg/kg.
